# Laboratory results reported in US7122668B2, “Platinum complexes and their use in therapy” (priority 2002, dated 2006).
# Where two headings read alike, the source gives them in different places.
# Legend:
# calf thymus DNA = assay: DNA binding (calf thymus DNA platination); details: for t1/2 half time of the binding to calf thymus DNA: 10 mM NaClO4, 37° C., ri = 0.08, differential pulse polarography; for ΔTm, 0.01M Na+ / ΔTm, 0.2 M / ΔΔεmax, maximum of the positive CD band at around 275 nm: rb = 0.05; for ΔΔεmax, maximum of the positive CD band at around 275 nm: difference between control and platinated DNA
# Method: The formation of calf thymus DNA platination was also examined. To this end, calf thymus DNA was incubated with different compounds (Table 3) in which the following parameters were determined: […]
# 41M = assay: Microculture tetrazolium (MTS) cell survival assay; format: cell-based; details: 24 hours incubation
# Method: (§1) Cytotoxicity of the synthesized complexes was also tested by the MTS method^(21). Accordingly, the compounds were incubated for 24 hours with the corresponding cell lines and the cell survival in compound-treated cultures was evaluated.
# (§2) The complexes were incubated for 24 hours with the above mentioned cell lines and the cell survival in compound-treated cultures was evaluated by the (microculture tetrazolium) MTS method as previously reported.
# CH1cisR = assay: Microculture tetrazolium (MTS) cell survival assay; format: cell-based; details: for IC50: 24 hours incubation, MTS; for resistance factor (IC50 resistant/IC50 sensitive): CH1cisR/CH1
# Method: as §1, §2
# A2780cisR = assay: Microculture tetrazolium (MTS) cell survival assay; format: cell-based; details: for IC50: 24 hours incubation, MTS; for resistance factor (IC50 resistant/IC50 sensitive): A2780cisR/A2780
# Method: as §1, §2
# 41McisR = assay: Microculture tetrazolium (MTS) cell survival assay; format: cell-based; details: for resistance factor (IC50 resistant/IC50 sensitive): 41McisR/41M; for IC50: 24 hours incubation, MTS
# Method: as §1, §2
# A2780 = assay: Microculture tetrazolium (MTS) cell survival assay; format: cell-based; details: 24 hours incubation
# Method: as §1, §2
# CH1 = assay: Microculture tetrazolium (MTS) cell survival assay; format: cell-based; details: 24 hours incubation
# Method: as §1, §2
# C-26 cells [1] = format: cell-based; details: C-26 cells, mean ± SD
# Method: (§3) A human ovarian carcinoma cell line (OV-1063), established at the Hadassah University hospital and human colon carcinoma cell line (C-26) were maintained in RPMI-1640 medium supplemented with 10% FCS, antibiotics and glutamine. All culture medium components were purchased from Biological Industries (Beit-HaEmek, Israel). Both cell lines were maintained at 37° C. in a water-jacketed CO2 incubator.
# (§4) Cytotoxicity of the synthesized complexes was tested by the methylene blue (MB) staining assay^(19). A fixed number of exponentially growing cells in 200 μl medium were plated in 96-microwell, flat-bottomed plates. For each of the complexes tested, 4 well were used. Following 24 hr in culture, 20 μl of different concentration of the complexes were added to each well containing untreated cells. Normal saline was added to the controls. Cells were exposed to complexes for 4, 24, or 72 hr. At the end of exposure for a fixed time interval, the treated cells as well as parallel control cells were washed and incubation was continued in fresh medium until termination of the experiment. Following 72 hr of growth, cells were fixed by adding 50 μl of 2.5% of glutaraldehyde to each well for 15 min. Fixed cells were rinsed 10 times with fresh de-ionized water and once with borate buffer (0.1 M, pH=8.5), dried and stained with MB (100 μl of 1% solution in 0.1 M borate buffer, pH=8.5) for 1 hr at room temperature. Stained cells were rinsed thoroughly with de-ionized water to remove any non-cell-bound die and then dried. The MB bound to the fixed cells was extracted by incubation at 37° C. with 200 μl of 0.1N HCl for 1 hr, and the net optical density (OD) of the die in each well was determined by a plate spectrophotometer (Labsystems Multyskan BICHROMATIC, Finland) at 620 nm.
# OV-1063 cells [2] = assay: Methylene blue (MB) assay of cell survival; format: cell-based, human; details: mean ± SD
# Method: as §3, §4
# C-26 cells [3] = assay: Determination of Pt-DNA adducts by FAAS; format: cell-based, human; details: C-26, 24 hr
# Method: (§5) Cells were seeded for 48 hr before one of the drugs was added to the culture medium. After 24 hr of exposure, the complexes were removed and the cells washed twice with ice-cold PBS and pelleted. DNA from platinum-containing material (2*10^6 cells) was extracted from the cell pellet by QIAamp DNA Blood Kit (QIAGEN, Germany) according to the manufacture instructions. DNA yield was determined by measuring the concentration of DNA in the eluate by absorbance at 260 nm.
# OV-1063 cells [4] = assay: Determination of Pt-DNA adducts by FAAS; format: cell-based, human; details: OV-1063, 24 hr
# Method: as §5
# C-26 cells [5] = assay: Platinum complex intracellular accumulation (FAAS); format: cell-based, human; details: C-26, 24 hr
# Method: (§6) Cells were seeded for 48 hr before one of the complexes was added to the culture medium. After 24 hr of exposure, the complexes were removed and the cells washed twice with ice-cold PBS and pelleted. The cells (1*10^6) were dried and mineralized by heating for 10 min in 65% HNO3 (BDH, England)^(22). Samples were dissolved in de-ionized water and each sample was measured at two different dilutions by flameless Zeeman atomic absorption spectrometer (FAAS). The calibration curves included 5 standards of K2PtCl4 stock solution with concentrations ranging from 50 to 250 ng platinum per ml. Platinum content was expressed as picomoles platinum per 1*10^6 cells.
# (§7) The Pt content associated with the cells was measured by Atomic Absorption Spectroscopy (AAS).
# OV-1063 cells [6] = assay: Platinum complex intracellular accumulation (FAAS); format: cell-based, human; details: OV-1063, 24 hr
# Method: as §6, §7
# [7] = listed as cis-[PtCl2(NH3)(pip)]
# [8] = 4 h exposure, read-out: IC50, 4 h
# [9] = 24 h exposure, read-out: IC50, 24 h
# [10] = 72 h exposure, read-out: IC50, 72 h
Molecule,t1/2 half time of the binding to calf thymus DNA (calf thymus DNA) [h],IC50 (41M) [µM],IC50 (CH1cisR) [µM],resistance factor (IC50 resistant/IC50 sensitive) (CH1cisR),IC50 (A2780cisR) [µM],resistance factor (IC50 resistant/IC50 sensitive) (A2780cisR),resistance factor (IC50 resistant/IC50 sensitive) (41McisR),IC50 (41McisR) [µM],IC50 (A2780) [µM],IC50 (CH1) [µM],"% IEC/adduct, frequency of interstrand crosslinks (calf thymus DNA) [%]",unwinding angle per adduct (calf thymus DNA) [°],"ΔTm, 0.01M Na+ (calf thymus DNA)","ΔTm, 0.2 M (calf thymus DNA)","ΔΔεmax, maximum of the positive CD band at around 275 nm (calf thymus DNA)",IC50 (C-26 cells [1]; [8]) [µM],IC50 (C-26 cells [1]; [9]) [µM],IC50 (C-26 cells [1]; [10]) [µM],IC50 (OV-1063 cells [2]; [8]) [µM],IC50 (OV-1063 cells [2]; [9]) [µM],further results
"C1CCNCC1.N.[Cl][Pt][Cl] [Complex 7, cis-[PtCl2(NH3)(piperidine)]]",1.88,64 ± 5,263 ± 17,(7.3),234 ± 17,9,(4.9),315 ± 24,26 ± 3,36 ± 4,–,–,–,–,–,–,–,–,–,–,"% IEC/adduct, frequency of interstrand crosslinks (calf thymus DNA; [7]): 5%; unwinding angle per adduct (calf thymus DNA; [7]): 13.2°; ΔTm, 0.01M Na+ (calf thymus DNA; [7]): −2.5 0.C; ΔTm, 0.2 M (calf thymus DNA; [7]): −6.0 0.C; ΔΔεmax, maximum of the positive CD band at around 275 nm (calf thymus DNA; [7]): 0.93"
Trans-[PtCl2(n-butylamine)(piperazine)].HCl [Complex 10],–,32 ± 5,19 ± 3,1.1,28 ± 2,1.8,1.5,48 ± 3,16 ± 2,17 ± 2,–,–,–,–,–,–,–,–,–,–,–
Cc1ccncc1.N.[Cl][Pt][Cl] [trans-[PtCl2(NH3)(4-picoline)]] [reference compound],0.833,–,–,–,–,–,–,–,–,–,40,39.6,+7.2 0.C,+0.6 0.C,−0.29,12 ± 1.2,11 ± 2,11 ± 1.1,18 ± 3.7,16 ± 3.5,IC50 (OV-1063 cells [2]; [10]): 14 ± 2.3 µM
"C1CNCCN1.Cl.N.[Cl][Pt][Cl] [Complex 8, Trans-[PtCl2(NH3)(piperazine)].HCl]",0.333,52 ± 5,34 ± 4,2.8,44 ± 4,8.8,3.0,155 ± 12,5 ± 1,12 ± 3,13,26.4,6.3 0.C,−1.9 0.C,0.01,–,–,–,–,–,–
"N.N.[Cl][Pt+2][Cl] [Transplatin, trans-[PtCl2(NH3)2], reference compound]",1.67,> 200,> 200,–,> 200,–,–,> 200,> 200,> 200,12,9.4,+8.7 0.C,+0.6 0.C,−0.34,64 ± 2,46 ± 3.1,41 ± 1.7,81 ± 4.3,73 ± 5.1,Pt-DNA adducts (C-26 cells [3]): 0 pmol Pt/50 μg DNA; Pt-DNA adducts (OV-1063 cells [4]): 0 pmol Pt/50 μg DNA; Penetration to cells (C-26 cells [5]): 384 pmol Pt/1 * 10^6 cells; Penetration to cells (OV-1063 cells [6]): 474 pmol Pt/1 * 10^6 cells; IC50 (OV-1063 cells [2]; [10]): 52 ± 3.2 µM
Trans-[PtCl2(piperidine)(piperazine)].HCl [Complex 12],–,37 ± 4,85 ± 7,3.9,64 ± 5,3.6,3.2,118 ± 9,18 ± 2,22 ± 3,–,–,–,–,–,–,–,–,–,–,–
